# Patent US20100331297A1, “MODULATION OF PROTEIN TRAFFICKING” (FOLDRX PHARMACEUTICALS, INC., priority 2007, published 2010)
# Biological target: ΔF508 CFTR (Homo sapiens, UniProt P13569, DEL508-508)
# Assay: Corrector activity, YFP halide (iodide) quenching assay in FRT cells expressing ΔF508 CFTR
# Assay type: cell-based
# Set-up: expressed in transfected cells; host or cells: Fischer rat thyroid (FRT) cells
# Conditions: FRT cells ΔF508 CFTR/YFP, 24 hours with compound at 37° C., forskolin and genistein; read-out: Corrector EC50
# Protocol: Fisher rat thyroid (FRT) cells stably expressing ΔF508 CFTR and a halide-sensitive variant of yellow fluorescent protein (YFP) were seeded into microtiter plates and allowed to grow for 24 hours at 37° C. and 5% CO2. See Pedemonte et al., J. Clin. Invest. […] Compounds in dimethylsulfoxide (DMSO) solution were pre-diluted into cell culture medium, the medium was removed from cells, and then fresh medium containing the compounds was applied. The cells were incubated for a further 24 hours at 37° C. and 5% CO2.
# Activity of CFTR was assayed by removing the medium, washing the cell monolayer with phosphate-buffered saline solution (PBS), and then applying PBS containing forskolin and genistein. After 30 min incubation at 37° C., the plates were placed in a fluorescence plate reader equipped with a reagent injector.
# Corrector activity was calculated as follows. Normalized endpoint fluorescence was calculated by dividing the endpoint fluorescence after iodide injection by the initial fluorescence reading and multiplication by 100. Corrector EC50 values were calculated from the activity vs. concentration data using a 4-parameter log fit. The bottom of the curve was constrained to zero activity (DMSO control) while the slope, EC50, and top of the curve were fitted to the data. The EC50 was determined as the concentration that corresponds to the inflection point of the fitted curve.
# Chain of ΔF508 CFTR (P13569 with tags, fused parts or gaps DEL508-508): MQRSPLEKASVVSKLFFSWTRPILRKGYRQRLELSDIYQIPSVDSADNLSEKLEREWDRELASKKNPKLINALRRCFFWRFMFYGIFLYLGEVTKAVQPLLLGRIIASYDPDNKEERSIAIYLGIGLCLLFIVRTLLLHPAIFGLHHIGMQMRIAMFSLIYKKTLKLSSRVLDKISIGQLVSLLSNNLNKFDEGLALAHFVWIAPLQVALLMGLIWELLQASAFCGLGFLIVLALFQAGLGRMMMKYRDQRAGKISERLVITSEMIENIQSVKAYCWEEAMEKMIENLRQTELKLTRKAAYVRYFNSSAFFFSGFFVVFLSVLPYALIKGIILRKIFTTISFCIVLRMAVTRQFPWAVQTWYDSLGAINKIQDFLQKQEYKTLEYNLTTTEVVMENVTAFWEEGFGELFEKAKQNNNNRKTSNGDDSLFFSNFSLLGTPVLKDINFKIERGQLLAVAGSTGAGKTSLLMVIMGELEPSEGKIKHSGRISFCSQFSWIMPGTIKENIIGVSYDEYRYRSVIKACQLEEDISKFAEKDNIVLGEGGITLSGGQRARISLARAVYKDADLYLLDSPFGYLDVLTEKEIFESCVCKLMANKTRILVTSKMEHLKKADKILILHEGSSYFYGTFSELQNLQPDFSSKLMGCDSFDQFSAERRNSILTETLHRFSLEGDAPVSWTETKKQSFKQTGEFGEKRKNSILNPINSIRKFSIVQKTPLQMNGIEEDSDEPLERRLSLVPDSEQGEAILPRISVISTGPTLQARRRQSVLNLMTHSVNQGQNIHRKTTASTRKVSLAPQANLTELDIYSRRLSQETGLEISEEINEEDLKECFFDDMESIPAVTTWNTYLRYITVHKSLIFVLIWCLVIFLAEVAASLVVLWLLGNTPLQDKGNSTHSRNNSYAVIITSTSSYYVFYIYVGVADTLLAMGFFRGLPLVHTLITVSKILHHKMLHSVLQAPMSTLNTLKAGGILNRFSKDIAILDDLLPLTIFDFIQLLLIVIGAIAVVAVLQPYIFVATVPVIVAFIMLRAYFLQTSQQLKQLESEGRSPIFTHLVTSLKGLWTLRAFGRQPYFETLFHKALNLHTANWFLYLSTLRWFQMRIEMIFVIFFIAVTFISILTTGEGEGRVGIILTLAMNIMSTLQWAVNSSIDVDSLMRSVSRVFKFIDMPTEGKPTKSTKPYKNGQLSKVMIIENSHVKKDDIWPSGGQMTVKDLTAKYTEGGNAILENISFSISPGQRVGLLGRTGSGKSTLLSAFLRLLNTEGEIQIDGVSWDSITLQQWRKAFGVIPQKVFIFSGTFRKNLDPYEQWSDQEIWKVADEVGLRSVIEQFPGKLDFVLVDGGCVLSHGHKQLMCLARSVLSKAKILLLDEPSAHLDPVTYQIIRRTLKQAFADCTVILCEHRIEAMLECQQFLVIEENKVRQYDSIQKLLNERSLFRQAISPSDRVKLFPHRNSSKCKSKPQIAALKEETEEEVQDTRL
row,Structure (SMILES),EC50 [µM]
1,"CCNC(=O)n1nc(-c2ccc(Cl)cc2)c2c(N)ncnc21 [Compound No. 213, 4-Amino-3-(4-chloro-phenyl)-pyrazolo[3,4-d]pyrimidine-1-carboxylic acid ethylamide]",5 to 10
2,"Nc1ncnc2c1c(Oc1cccc(Cl)c1)nn2C1CCCC1 [Compound No. 221, 3-(3-Chloro-phenoxy)-1-cyclopentyl-1H-pyrazolo[3,4-d]pyrimidin-4-ylamine]",> 15
3,"CCn1nc(Nc2ccccc2)c2c(N)ncnc21 [Compound No. 223, 1-Ethyl-N^3-phenyl-1H-pyrazolo[3,4-d]pyrimidine-3,4-diamine]",> 15
4,"Cc1ccc(-c2nn(-c3ncccn3)c3ncnc(N)c23)cc1 [Compound No. 229, 1-Pyrimidin-2-yl-3-p-tolyl-1H-pyrazolo[3,4-d]pyrimidin-4-ylamine]",> 15
5,"CC(C)(C)n1nc(-c2ccc(Cl)cc2)c2c(NC(=O)Nc3ccccc3)ncnc21 [Compound No. 230, 1-[1-tert-Butyl-3-(4-chloro-phenyl)-1H-pyrazolo[3,4-d]pyrimidin-4-yl]-3-phenyl-urea]",> 15
6,"CN(C)/C=N/c1ncnc2c1c(-c1ccc(Cl)cc1)nn2C(C)(C)C [Compound No. 232, N′-[1-tert-Butyl-3-(4-chloro-phenyl)-1H-pyrazolo[3,4-d]pyrimidin-4-yl]-N,N-dimethyl-formamidine]",> 15
7,"Cc1ccc(-c2nn(C(C)(C)C)c3ncnc(Nc4ncccn4)c23)cc1 [Compound No. 234, (1-tert-Butyl-3-p-tolyl-1H-pyrazolo[3,4-d]pyrimidin-4-yl)-pyrimidin-2-yl-amine]",> 15
8,"CCn1nc(N(C)c2ccccc2)c2c(N)ncnc21 [Compound No. 248, 1-Ethyl-N^3-methyl-N^3-phenyl-1H-pyrazolo[3,4-d]pyrimidine-3,4-diamine]",> 15
9,"Nc1ncnc2c1c(Nc1ccccc1)nn2C1CCC1 [Compound No. 253, 1-Cyclobutyl-N^3-phenyl-1H-pyrazolo[3,4-d]pyrimidine-3,4-diamine]",> 15
10,"CC(=O)N(C)c1ncnc2c1c(-c1ccc(Cl)cc1)nn2C(C)(C)C [Compound No. 259, N-[1-tert-Butyl-3-(4-chloro-phenyl)-1H-pyrazolo[3,4-d]pyrimidin-4-yl]-N-methyl-acetamide]",> 15
11,"CC(C)(C)n1nc(-c2nc3ccccc3o2)c2c(N)ncnc21 [Compound No. 355, 3-Benzooxazol-2-yl-1-tert-butyl-1H-pyrazolo[3,4-d]pyrimidin-4-ylamine]",2 to 5
12,"CC(C)(C)n1ncc2c(NC(=O)c3ccccc3)ncnc21 [Compound No. 388, N-(1-tert-Butyl-1H-pyrazolo[3,4-d]pyrimidin-4-yl)-benzamide]",> 15
13,"CC(C)(C)n1nc(-c2ccc(Cl)cc2)c2c(NC(=O)C(=O)c3ccccc3)ncnc21 [Compound No. 395, N-[1-tert-Butyl-3-(4-chloro-phenyl)-1H-pyrazolo[3,4-d]pyrimidin-4-yl]-2-oxo-2-phenyl-acetamide]",5 to 10
14,"CNC(=S)Nc1ncnc2c1c(-c1ccc(Cl)cc1)nn2C(C)(C)C [Compound No. 397, 1-[1-tert-Butyl-3-(4-chloro-phenyl)-1H-pyrazolo[3,4-d]pyrimidin-4-yl]-3-methyl-thiourea]",> 15
15,CCC(C)Cn1nc(-c2ccc(Cl)cc2)c2c(N)ncnc21 (stereo not shown) [compound 101],> 15
16,"CC(=O)N(C(C)=O)c1ncnc2c1c(-c1ccc(F)cc1)nn2C(C)(C)C [compound 117, N-Acetyl-N-[1-tert-butyl-3-(4-fluoro-phenyl)-1H-pyrazolo[3,4-d]pyrimidin-4-yl]-acetamide]",> 15
17,CC(=O)c1ccc(-c2nn(C(C)(C)C)c3ncnc(N)c23)cc1 [compound 125],> 15
18,CC(C)(C)n1nc(-c2ccc3ccccc3c2)c2c(N)ncnc21 [compound 129],5 to 10
19,CC(C)(C)n1nc(-c2ccc(O)c3ccccc23)c2c(N)ncnc21 [compound 164],> 15
20,COCCn1nc(-c2ccc(Cl)cc2)c2c(N)ncnc21 [compound 171],> 15
21,"CC(=O)n1nc(-c2ccc(Cl)cc2)c2c(N)ncnc21 [compound 181, 1-[4-Amino-3-(4-chloro-phenyl)-pyrazolo[3,4-d]pyrimidin-1-yl]-ethanone]",> 15
22,Nc1ncnc2c1c(-c1ccc(Cl)cc1)nn2C(=O)C1CC1 [compound 182],5 to 10
23,"COC(=O)n1nc(-c2ccc(Cl)cc2)c2c(N)ncnc21 [compound 186, 4-Amino-3-(4-chloro-phenyl)-pyrazolo[3,4-d]pyrimidine-1-carboxylic acid methyl ester]",> 15

row,Structure (SMILES),EC50 [µM]
1,CC(C)(C)C1N=C(c2ccc(Cl)cc2)c2c(NC(=O)C3CCC3)ncnc21 (stereo not shown) [compound 192],2 to 5
2,"CS(=O)(=O)n1nc(-c2ccc(Cl)cc2)c2c(N)ncnc21 [compound 203, 3-(4-Chloro-phenyl)-1-methanesulfonyl-1H-pyrazolo[3,4-d]pyrimidin-4-ylamine]",> 15
3,"CCn1cc(-c2ccc(Cl)cc2)c2c(N(C(C)=O)C(C)=O)ncnc21 [compound 211, N-Acetyl-N-[5-(4-chloro-phenyl)-7-ethyl-7H-pyrrolo[2,3-d]pyrimidin-4-yl]-acetamide]",2 to 5
4,Nc1ncnc2c1c(-c1ccc(Cl)cc1)nn2C(=O)Nc1ccccc1 [compound 214],> 15
5,Nc1ncnc2c1c(-c1ccc(Cl)cc1)nn2C(=O)NCc1ccccc1 [compound 215],> 15
6,CCn1nc(Sc2cccc(F)c2)c2c(N)ncnc21 [compound 219],2 to 5
7,CCn1nc([S+]([O-])c2ccccc2C)c2c(N)ncnc21 (stereo not shown) [compound 222],> 15
8,CC(C)(C)n1nc(-c2ccc(Cl)cc2)c2c(NC(=O)NCc3ccccc3)ncnc21 [compound 231],> 15
9,CC(C)(C)n1nc(-c2ccc(Cl)cc2)c2c(Nc3ncccn3)ncnc21 [compound 235],> 15
10,CCNC(=O)Nc1ncnc2c1c(-c1ccc(Cl)cc1)nn2C(C)(C)C [compound 239],> 15
11,Nc1ncnc2c1c(-c1ccc(Cl)cc1)nn2CCc1ccccc1 [compound 243],> 15
12,CCn1nc(Sc2ccncc2)c2c(N)ncnc21 [compound 249],> 15
13,CCn1nc(Sc2cccc(O)c2)c2c(N)ncnc21 [compound 250],> 15
14,Nc1ncnc2c1c(-c1ccc(Cl)cc1)nn2-c1ncccn1 [compound 251],> 15
15,CCn1nc([S+]([O-])c2ccc(F)cc2)c2c(N)ncnc21 (stereo not shown) [compound 254],> 15
16,CCn1nc(Sc2ccc(C)cc2)c2c(N)ncnc21 [compound 255],> 15
17,CCn1nc(Sc2ccc(F)cc2F)c2c(N)ncnc21 [compound 258],> 15
18,CCn1nc(Oc2cccc(Cl)c2)c2c(N)ncnc21 [compound 260],> 15
19,CC(C)C(=O)Nc1ncnc2c1c(-c1ccc(Cl)cc1)cn2C(C)(C)C [compound 337],< 2
20,CC(C)(C)n1nc(Oc2cccc(Cl)c2)c2c(NC(=O)C3CCCC3)ncnc21 [compound 338],5 to 10
21,CCC(=O)Nc1ncnc2c1c(Oc1cccc(Cl)c1)nn2C(C)(C)C [compound 339],5 to 10
22,CCn1nc([S+]([O-])c2cccc(C(F)(F)F)c2)c2c(N)ncnc21 (stereo not shown) [compound 340],> 15
23,CCNC(=O)N1CC(n2nc(Sc3ccccc3)c3c(N)ncnc32)C1 [compound 348],> 15
